{"source": "patent US20030113409A1", "about": "“Tellurium containing nutrient formulation and process for enhancing the cumulative weight gain or feed efficacy in poultry” (priority 2001, published 2003)", "key": {"[1]": {"assay": "Growth performance of three day old chicks fed diet with AS101 (body weight, feed intake, feed efficacy, liver weight, survival, histology)", "conditions": "for increase in BW over Group 1: versus standard diet without selenium", "description": "Each chick included in the study weighed exactly 80 g. via accurate electronic scale and each chick was marked. There were five different treatment groups, each group comprising ten chicks in four repetitions. The five groups of animals were tested as follows: Group 1 received a standard feeding diet without selenium; Group 2 received the standard feeding diet supplemented with 500 mg/metric ton of selenium; Group 3 received the same diet as Group 2 with the addition of AS101 at a concentration of 500 mg/metric ton; Group 4 received the same diet as Group 2 with the addition of AS101 at a concentration of 2,500 mg/metric ton; Group 5 received the same diet as Group 2 with the addition of AS101 at a concentration of 12,500 mg/ton. All the experiments were randomized and open. The results of each group represent the mean of 40 chicks. For growth period days 3-24, the performance of groups of three day old birds, fed AS101 concentrations of 500 mg/metric ton, 2,500 mg/metric ton or 12,500 mg/metric ton were compared to groups of control birds fed either a standard feeding diet without selenium or a standard feeding diet with an addition of […] selenium. Body weight (BW) was measured after 24 days. At the end of 24 days, the animals were examined for gross signs of toxicity. A gross visual examination was carried out. The liver of each chick was extracted and weighed."}, "[2]": {"conditions": "Phase I and II, cancer patients; cited from earlier work"}, "[3]": {"conditions": "intraruminal pellets selenium, dairy heifers; cited from earlier work"}, "[4]": {"conditions": "Treatment 3: AS101 500 mg/metric ton"}, "[5]": {"conditions": "Treatment 4: AS101 2,500 mg/metric ton"}, "[6]": {"conditions": "Treatment 4: AS101 2,500 mg/metric ton, control = Treatment 2"}, "[7]": {"conditions": "Treatment 5: AS101 12,500 mg/ton"}, "[8]": {"conditions": "Treatment 5: AS101 12,500 mg/ton, control = Treatment 2"}, "[9]": {"conditions": "Treatment 2: selenium supplemented diet, no AS101"}}, "data": [{"molecule": "Cl[TeH]1(Cl)(Cl)OCCO1", "note": "[AS101, ammonium trichloro(dioxyethylene-O,O′)tellurate]", "values": [{"measurement": "change in BW (significance)", "setting": "[1]; 12.5 g/ton AS101", "value": "significant increase in BW"}, {"measurement": "BW increase", "setting": "[1]; AS101 500 mg/ton added to mixture that includes selenium", "value": 1.7, "unit": "%"}, {"measurement": "BW increase", "setting": "[1]; AS101 2,500 mg/ton added to mixture that includes selenium", "value": 2.3, "unit": "%"}, {"measurement": "BW increase", "setting": "[1]; AS101 12,500 mg/ton added to mixture that includes selenium", "value": 5, "unit": "%"}, {"measurement": "increase in BW over Group 1", "setting": "[1]; Group 5, highest level of tellurium", "value": 5.4, "unit": "%"}, {"measurement": "FEED EFFICACY", "setting": "[1]; [4]", "value": 0.731, "unit": "g/g"}, {"measurement": "FEED INTAKE", "setting": "[1]; [4]", "value": 1382, "unit": "g"}, {"measurement": "FE, % OF CONTROL", "setting": "[1]; Treatment 3: AS101 500 mg/metric ton, control = Treatment 2", "value": 103.5, "unit": "%"}, {"measurement": "BW, % OF CONTROL", "setting": "[1]; Treatment 3: AS101 500 mg/metric ton, control = Treatment 2 (selenium diet)", "value": 101.7, "unit": "%"}, {"measurement": "BW-24D", "setting": "[1]; Treatment 3: standard diet + selenium 500 mg/metric ton + AS101 500 mg/metric ton, mean of 40 chicks", "value": 1090, "unit": "g"}, {"measurement": "FEED EFFICACY", "setting": "[1]; [5]", "value": 0.74, "unit": "g/g"}, {"measurement": "FEED INTAKE", "setting": "[1]; [5]", "value": 1375, "unit": "g"}, {"measurement": "BW, % OF CONTROL", "setting": "[1]; [6]", "value": 102.3, "unit": "%"}, {"measurement": "FE, % OF CONTROL", "setting": "[1]; [6]", "value": 104.8, "unit": "%"}, {"measurement": "BW-24D", "setting": "[1]; Treatment 4: standard diet + selenium + AS101 2,500 mg/metric ton, mean of 40 chicks", "value": 1097, "unit": "g"}, {"measurement": "FEED EFFICACY", "setting": "[1]; [7]", "value": 0.738, "unit": "g/g"}, {"measurement": "FEED INTAKE", "setting": "[1]; [7]", "value": 1417, "unit": "g"}, {"measurement": "BW, % OF CONTROL", "setting": "[1]; [8]", "value": 105, "unit": "%"}, {"measurement": "FE, % OF CONTROL", "setting": "[1]; [8]", "value": 104.5, "unit": "%"}, {"measurement": "BW-24D", "setting": "[1]; Treatment 5: standard diet + selenium + AS101 12,500 mg/ton, mean of 40 chicks", "value": 1126, "unit": "g"}, {"measurement": "survival rate", "setting": "[1]; all groups, no mortalities", "value": 100, "unit": "%"}, {"measurement": "increase of growth rate of young chicks", "setting": "[1]; diet with at least 0.5 gm selenium per metric ton + 12.5 gm tellurium compound per metric ton, by day 21", "value": "up to 5%"}, {"measurement": "food intake altered by feeding with AS101", "setting": "[1]; in vivo", "value": "not altered"}, {"measurement": "histological studies", "setting": "[1]; in vivo", "value": "No pathological changes were observed"}, {"measurement": "toxicity in clinical trials", "setting": "[2]", "value": "non-toxic"}]}, {"molecule": "[Se]", "note": "[selenium, reference compound]", "values": [{"measurement": "increase in BW over Group 1", "setting": "[1]; Group 2, addition of 300 mg/ton of selenium", "value": 0.4, "unit": "%"}, {"measurement": "FEED EFFICACY", "setting": "[1]; [9]", "value": 0.706, "unit": "g/g"}, {"measurement": "FEED INTAKE", "setting": "[1]; [9]", "value": 1405, "unit": "g"}, {"measurement": "LIVER, % OF BW", "setting": "[1]; [9]", "value": 2.32, "unit": "%"}, {"measurement": "BW-24D", "setting": "[1]; Treatment 2: standard diet supplemented with 500 mg/metric ton of selenium, no AS101", "value": 1072, "unit": "g"}, {"measurement": "weight gains over control", "setting": "[3]", "value": "0.11 to 0.12", "unit": "kg/day"}]}]}
